# From ChEMBL document CHEMBL3351494, “Selenium analogues of raloxifene as promising antiproliferative agents in treatment of breast cancer” (Eur J Med Chem, 2014)
# pIC50: −log10 of the molar value. Activity calls are given as the source filed them. The rule behind the calls is not given here.
# Legend:
# [1] = Cytotoxicity against mouse CCL8 cells after 72 hrs by MTT assay; format: functional, cell-based; settings: CCL8, 72 h
# [2] = Cytotoxicity against human MDA-MB-435S cells after 72 hrs by MTT assay; format: functional, cell-based
# [3] = Cytotoxicity against human MES-SA cells after 72 hrs by MTT assay; format: functional, cell-based
# MCF7 = assay: Cytotoxicity against human MCF7 cells after 72 hrs by MTT assay; format: functional, cell-based; settings: MCF7, 72 h
# [4] = Cytotoxicity against human HT1080 cells after 72 hrs by MTT assay; format: functional, cell-based; settings: HT-1080, 72 h
# MG-22A = assay: Cytotoxicity against mouse MG-22A cells after 72 hrs by MTT assay; format: functional, cell-based
# [5] = Cytotoxicity against mouse NIH/3T3 cells after 72 hrs by MTT assay; format: cell-based; settings: NIH3T3, 72 h
# [6] = Acute toxicity in po dosed rat; format: organism-based; settings: in vivo
# 4T1 [7] = assay: Antitumor activity against mouse 4T1 cells allografted in BALB/c mouse assessed as tumor growth inhibition at 1.8 mg/kg, ip administered 24 hrs post tumor implantation on even days of total 9 doses for 18 days relative to control; format: functional; settings: 4T1, ip, route intraperitoneal, read-out: TGI
# 4T1 [8] = assay: Antitumor activity against mouse 4T1 cells allografted in BALB/c mouse assessed as tumor growth inhibition at 15 mg/kg, ip administered 24 hrs post tumor implantation on even days of total 9 doses for 18 days measured after 18 days relative to control; format: functional
# CCRF S-180 = assay: Antitumor activity against mouse S180 cells allografted in ICR mouse assessed as tumor growth inhibition at 15 mg/kg, ip qd administered 24 hrs post tumor implantation for 9 days measured after 9 days relative to control; format: functional, organism-based; parameters: dose 15 mg/kg
# Mus musculus = assay: Toxicity in mouse 4T1 cells allografted BALB/c mouse assessed as body weight loss at 15 mg/kg, ip administered 24 hrs post tumor implantation on even days of total 9 doses for 18 days measured after 18 days relative to control; format: organism-based; parameters: dose 15 mg/kg, route intraperitoneal; settings: in vivo, 432 h
Structure (SMILES),pIC50 [1],pIC50 [2],pIC50 [3],pIC50 (MCF7),pIC50 [4],pIC50 (MG-22A),pIC50 [5],LD50 [6] [mg/kg],inhibition in vivo at 1.8 mg/kg (4T1 [7]) [%],TGI (4T1 [8]),TGI (CCRF S-180),"inhibition in vivo at 15 mg/kg (4T1 [8]; 4T1, ip, route intraperitoneal, read-out: TGI) [%]",Activity (Mus musculus)
CN(C)CCOc1ccc(C(=O)c2c(-c3ccc(O)cc3)[se]c3cc(O)ccc23)cc1.Cl,4.55,4.59,4.29,4.66,4.32,5.05,4.70,413,,,,,
O=[Se]([O-])[O-].[Na+].[Na+] [SODIUM SELENITE],5.10,4.92,4.54,4.77,5.77,4.19,4.64,105,,,,,
Cl.O=C(c1ccc(OCCN2CCOCC2)cc1)c1c(-c2ccc(F)cc2)[se]c2cc(F)ccc12,4.60,3.77,4.28,3.92,4.57,4.68,3.44,1410,,,,,
Cl.O=C(c1ccc(OCCN2CCOCC2)cc1)c1[se]c2cc(O)ccc2c1-c1ccc(O)cc1,5.47,4.81,5.16,4.51,5.07,5.28,4.80,465,,,,,
O=C(c1ccc(OCCN2CCCCC2)cc1)c1c(-c2ccc(O)cc2)sc2cc(O)ccc12 [RALOXIFENE],4.57,4.59,4.43,4.30,4.47,5.17,5.11,255,70,inactive,inactive,,
CN(C)CCOc1ccc(C(=O)c2[se]c3cc(O)ccc3c2-c2ccc(O)cc2)cc1.Cl,5.42,5.42,5.24,4.76,5.24,5.41,4.51,674,,,,,
Cl.O=C(c1ccc(OCCN2CCCCC2)cc1)c1c(-c2ccc(F)cc2)[se]c2cc(F)ccc12,5.44,5.44,5.35,4.94,5.35,5.35,5.05,280,,,,,
C[N+](C)(C)CCOc1ccc(C(=O)c2c(-c3ccc(O)cc3)[se]c3cc(O)ccc23)cc1.[Cl-],,,,,3.88,3.91,3.34,1540,,,,,
Cl.O=C(c1ccc(OCCN2CCCCCC2)cc1)c1c(-c2ccc(O)cc2)[se]c2cc(O)ccc12,4.44,4.85,4.41,4.40,4.57,5.28,4.85,400,,,,,
Cl.O=C(c1ccc(OCCN2CCCC2)cc1)c1c(-c2ccc(O)cc2)[se]c2cc(O)ccc12,4.47,4.37,4.49,4.48,4.44,4.68,4.38,543,,,,,
CNCCOc1ccc(C(=O)c2c(-c3ccc(O)cc3)[se]c3cc(O)ccc23)cc1.Cl,4.34,4.77,4.38,4.92,5.22,5.22,4.49,452,,,,,
Cl.O=C(c1ccc(OCCN2CCCCC2)cc1)c1c(-c2ccc(O)cc2)[se]c2cc(O)ccc12,5.27,5.44,4.25,4.46,4.92,5.27,4.66,446,4,,inactive,30,Non-toxic
CCCCCCCCN(C)CCOc1ccc(C(=O)c2c(-c3ccc(O)cc3)[se]c3cc(O)ccc23)cc1.Cl,5.33,5.40,5.40,5.33,5.33,5.49,5.10,308,,,,,
Cl.O=C(c1ccc(OCCN2CCOCC2)cc1)c1c(-c2ccc(O)cc2)[se]c2cc(O)ccc12,5.01,4.49,4.21,4.42,4.34,5.10,4.44,553,,,,,
Cl.O=C(c1ccc(OCCN2CCCCC2)cc1)c1[se]c2cc(O)ccc2c1-c1ccc(O)cc1,5.44,4.49,4.84,4.60,4.52,5.44,4.55,615,,,,,
CN(C)CCOc1ccc(C(=O)c2c(-c3ccc(F)cc3)[se]c3cc(F)ccc23)cc1.Cl,5.42,5.46,5.42,5.17,5.32,5.42,4.96,313,,,,,
